Reference: article PMC12432127, “Assessing the potential of bacterial signal peptides for radiopharmaceutical applications” (Scientific Reports, 2025)
Values joined by “and” are separate entries in the source; they are usually repeats but may differ in a detail not shown here. Equal values may be shown once. Residues, ends and D or L forms follow the SMILES beside them. *: point of attachment. For = O=C*

What was measured:
[1] = target: T1, human FPR3 (Homo sapiens, UniProt P25089); experiment: High-throughput calcium imaging (FLIPR), FPR3 transfected HEK293T cells; format: cell-based; settings: up to 10 µM
T1 construct: expressed in transfected cells; host or cells: HEK293T (transient, jetPEI)
T1 sequence (P25089 1-353): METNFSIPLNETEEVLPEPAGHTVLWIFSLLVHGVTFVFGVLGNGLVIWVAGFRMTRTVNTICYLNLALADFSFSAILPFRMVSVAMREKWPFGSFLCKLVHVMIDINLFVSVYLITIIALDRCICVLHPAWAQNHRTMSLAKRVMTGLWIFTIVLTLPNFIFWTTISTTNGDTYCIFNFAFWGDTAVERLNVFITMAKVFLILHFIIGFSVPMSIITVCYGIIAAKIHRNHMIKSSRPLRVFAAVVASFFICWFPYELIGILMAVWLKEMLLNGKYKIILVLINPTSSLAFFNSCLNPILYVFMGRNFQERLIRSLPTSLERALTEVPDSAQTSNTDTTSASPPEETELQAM
Description: (§1) Cell transfection was performed approximately 24 h after seeding the cells, when they reached about 70% confluence. Transfection was carried out using jetPEI™ (Polyplus) according to the following protocol: 0.25 µg DNA was diluted in 10 µL NaCl (150 mM). 0.5 µL of jetPEI™ solution in 10 µL NaCl was mixed with the DNA solution and incubated at RT for 15–30 min. After incubation, 20 µL of the jetPEI™/DNA mixture was added dropwise to the cells, which were then placed in the cell culture incubator at 37 °C and 5% CO2. After 18 to 24 h of transfection, the medium was replaced, and 100 µL per well was added, then placed back in the incubator.
(§2) Automated high-throughput Ca^2+ measurements using a fluorescence imaging plate reader (FLIPR, Molecular Devices) were performed. […] After 2 h of loading with the fluorescent dye, the solution was removed, the plate was washed three times using an ELX50 washer (BioTek), and the intracellular release of calcium was measured using FLIPR. […]
(§3) The results are expressed as the means ± standard deviations of the number of the indicated determinations. […] Response amplitudes (F/F0) were calculated by dividing maximal fluorescence change after ligand application by baseline fluorescence. Maximal amplitudes were set to 100%, and curves were calculated with Graph Pad Prism Version 10.1 (GraphPad Software, Boston, MA, USA). […]

[2] = target: T2, FPR1 (Homo sapiens, UniProt P21462); experiment: High-throughput calcium imaging (FLIPR), FPR1 transfected HEK293T cells; format: cell-based; settings: for Calicum signal (dF/F0): FPR1-HEK
T2 construct: expressed in transfected cells; host or cells: HEK293T (transient, jetPEI)
T2 sequence (P21462 1-350): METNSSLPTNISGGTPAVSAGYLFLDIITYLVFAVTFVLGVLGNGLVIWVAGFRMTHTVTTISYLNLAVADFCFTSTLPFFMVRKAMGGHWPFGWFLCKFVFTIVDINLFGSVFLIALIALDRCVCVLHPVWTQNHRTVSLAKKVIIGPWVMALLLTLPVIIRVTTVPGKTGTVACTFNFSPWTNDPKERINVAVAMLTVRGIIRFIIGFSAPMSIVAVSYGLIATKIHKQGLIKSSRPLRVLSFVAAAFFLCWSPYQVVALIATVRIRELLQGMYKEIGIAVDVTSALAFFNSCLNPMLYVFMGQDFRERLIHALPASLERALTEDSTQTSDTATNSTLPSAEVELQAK
Description: as §1
(§4) Automated high-throughput Ca^2+ measurements using a fluorescence imaging plate reader (FLIPR, Molecular Devices) were performed. Briefly, […] were seeded in 96-well plates (~ 50,000 cells/well) one day before the experiments and incubated at 37 °C. HEK293T cells were co-transfected with the receptor or mock and the G protein Gα16 for 48 h. On the day of the experiments, the medium was removed, and the cells were loaded with a loading solution consisting of 2 µM Calbryte dye in C1 buffer (Calbryte 520AM, AAT Bioquest 20651) 50 µL per well, for at least 2 h at RT in the dark. After 2 h of loading with the fluorescent dye, the solution was removed, the plate was washed three times using an ELX50 washer (BioTek), and the intracellular release of calcium was measured using FLIPR. A Ca^2+ response was defined as an increase in the excitation ratio (340 nm/380 nm) that was at least four times higher than the mean baseline noise after bath application.
(§5) The results are expressed as the means ± standard deviations of the number of the indicated determinations. Calcium measurement experiments were routinely performed as triplicates and averaged over at least three independent transfections. Response amplitudes (F/F0) were calculated by dividing maximal fluorescence change after ligand application by baseline fluorescence. Maximal amplitudes were set to 100%, and curves were calculated with Graph Pad Prism Version 10.1 (GraphPad Software, Boston, MA, USA). S.D. values were calculated as averages from independently obtained EC50 values using the STDEV. Data derived from experiments were analyzed by two-way ANOVA. P < 0.05 was accepted as significant.

[3] = test system: U87-MG cells; experiment: Calcium imaging (FLIPR) in U87-MG cells; format: cell-based, human; settings: for Calicum signal (dF/F0): U87 cells
Description: as §4, §5

[4] = target: T3, human FPR2 (Homo sapiens, UniProt P25090); experiment: High-throughput calcium imaging (FLIPR), FPR2 transfected HEK293T cells; format: cell-based; settings: read-out: EC50 Ca2+ mobilization
T3 construct: expressed in transfected cells; host or cells: HEK293T (transient, jetPEI)
T3 sequence (P25090 1-351): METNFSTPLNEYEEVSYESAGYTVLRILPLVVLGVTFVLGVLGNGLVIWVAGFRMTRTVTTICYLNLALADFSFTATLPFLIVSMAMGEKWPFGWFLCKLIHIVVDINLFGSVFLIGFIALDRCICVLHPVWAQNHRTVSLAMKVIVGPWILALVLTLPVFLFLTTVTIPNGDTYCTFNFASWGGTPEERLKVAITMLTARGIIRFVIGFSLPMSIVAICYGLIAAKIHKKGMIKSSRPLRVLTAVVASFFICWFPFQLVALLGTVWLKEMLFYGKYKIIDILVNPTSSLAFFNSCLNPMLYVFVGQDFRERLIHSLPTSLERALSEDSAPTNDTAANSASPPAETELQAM
Description: as §1, §2, §3

[5] = Log Concentration (M) -6,5, single replicate values
[6] = Log Concentration (M) -6, single replicate values
[7] = Log Concentration (M) -7,5, single replicate values
[8] = Log Concentration (M) -7, single replicate values
[9] = Log Concentration (M) -8,5, single replicate values
[10] = Log Concentration (M) -8, single replicate values
[11] = Log Concentration (M) -9, single replicate values

With CC[C@H](C)[C@H](NC(=O)[C@H](CCCCN)NC(=O)[C@@H](NC(=O)[C@@H]1CCCN1C(=O)[C@@H](NC(=O)[C@H](CCSC)NC=O)C(C)C)[C@@H](C)CC)C(=O)O [f-MVPIKI] (For-MVPIKI-OH; C-terminus assumed) the “activation of FPR3 (calcium)” value [1] was “did not activate FPR3 at any tested concentration”, the “Calicum signal (dF/F0)” value [2, 5] was 0,85 (2×) and 0,92 and the “Calicum signal (dF/F0)” value [2, 6] was 0,75 and 0,94 and 0,85. For the same molecule, the “Calicum signal (dF/F0)” value [2, 7] was 0,71 and 0,77 and 0,68, the “Calicum signal (dF/F0)” value [2, 8] was 0,57 and 0,86 and 0,73 and the “Calicum signal (dF/F0)” value [2, 9] was 0,27 and 0,32 and 0,34. The “Calicum signal (dF/F0)” value [2, 10] was 0,65 and 0,63 and 0,6, the “Calicum signal (dF/F0)” value [2, 11] was 0,18 and 0,24 and 0,22 and the EC50 ([2]; FPR1 transfected HEK293T cells, peak calcium response, read-out: EC50 Ca2+ mobilization) was 4.3 ± 2.4 nM. The “preference for FPR1 over FPR2 (calcium EC50)” value ([2]; FPR1 vs FPR2) was “approximately 14 fold”, the EC50 ([3]; U87-MG cells, read-out: EC50 Ca2+ flux) was 5.3 ± 2.4 nM and the “Calicum signal (dF/F0)” value [3, 5] was 1,19 (2×) and 0,99 and 1,7 and 1,4. The “Calicum signal (dF/F0)” value [3, 6] was 1,22 and 1,13 and 1,2 and 1,14 and 1,1, the “Calicum signal (dF/F0)” value [3, 7] was 1 and 0,95 and 0,98 and 1,12 and 1,1 and the “Calicum signal (dF/F0)” value [3, 8] was 1 and 1,1 and 1,2 and 1,18 and 0,99. The “Calicum signal (dF/F0)” value [3, 9] was 0,66 (2×) and 0,69 and 0,6 and 0,47, the “Calicum signal (dF/F0)” value [3, 10] was 0,9 and 0,98 and 0,94 and 1,3 and 1,07 and the “Calicum signal (dF/F0)” value ([3]; Log Concentration (M) -9,5, single replicate values) was 0,01 and 0,08 and 0,09 and 0,1 and 0,3. For the same molecule, the “Calicum signal (dF/F0)” value [3, 11] was 0,14 and 0,23 and 0,2 and 0,12 and 0,38 and the EC50 [4] was 60 ± 0.76 nM.
